These are literature values, as cited in article PMC5084670 (Cancer Science, 2016).

The structures appear in SMILES notation.

The test system of data set [1] is primary human muscle cells. The settings on record: cited from earlier work.
For data set [2] the following is noted: cited from earlier work.
[3] abbreviates: patients from Europe and the USA, CLDE225X2101 study.

On to `Cc1c(C(=O)Nc2ccc(N3C[C@@H](C)O[C@@H](C)C3)nc2)cccc1-c1ccc(OC(F)(F)F)cc1` [Sonidegib], for which, in data set [1], the “Effect on muscle cells” value was “induce muscle contraction and muscle fiber twitching”. Further, the “Rhabdomyolysis, patients” value in data set [2] (CLDE225X2101 study) is “three”. The “Half-life (t 1/2)” value in data set [2] (as reported in non-Asian patients) is ~ 28 days. Also, the AUClast in data set [2] (cycle 1 day 15, 400 mg, non-Asian patients (CLDE225X2101)) was 8806 ng·h/mL. Moreover, in data set [2] (setting [3]), the “Maximum tolerated dose (MTD), once daily” value is reported as 800 mg q.d and the “Maximum tolerated dose (MTD), twice daily” value is listed as 250 mg b.i.d.
